Measured values taken from article PMC12050906 (Drug Development Research, 2025).

Columns and labels:
12-lipoxygenase (12-LO) = 12-lipoxygenase (12-LO) (Homo sapiens, UniProt P18054); experiment: 12-HETE biosynthesis; format: cell-based
5-lipoxygenase (5-LO) = target: T1, 5-lipoxygenase (5-LO) (Homo sapiens, UniProt P09917); experiment: 5-LO product biosynthesis; format: cell-based
T1 sequence (P09917 1-674): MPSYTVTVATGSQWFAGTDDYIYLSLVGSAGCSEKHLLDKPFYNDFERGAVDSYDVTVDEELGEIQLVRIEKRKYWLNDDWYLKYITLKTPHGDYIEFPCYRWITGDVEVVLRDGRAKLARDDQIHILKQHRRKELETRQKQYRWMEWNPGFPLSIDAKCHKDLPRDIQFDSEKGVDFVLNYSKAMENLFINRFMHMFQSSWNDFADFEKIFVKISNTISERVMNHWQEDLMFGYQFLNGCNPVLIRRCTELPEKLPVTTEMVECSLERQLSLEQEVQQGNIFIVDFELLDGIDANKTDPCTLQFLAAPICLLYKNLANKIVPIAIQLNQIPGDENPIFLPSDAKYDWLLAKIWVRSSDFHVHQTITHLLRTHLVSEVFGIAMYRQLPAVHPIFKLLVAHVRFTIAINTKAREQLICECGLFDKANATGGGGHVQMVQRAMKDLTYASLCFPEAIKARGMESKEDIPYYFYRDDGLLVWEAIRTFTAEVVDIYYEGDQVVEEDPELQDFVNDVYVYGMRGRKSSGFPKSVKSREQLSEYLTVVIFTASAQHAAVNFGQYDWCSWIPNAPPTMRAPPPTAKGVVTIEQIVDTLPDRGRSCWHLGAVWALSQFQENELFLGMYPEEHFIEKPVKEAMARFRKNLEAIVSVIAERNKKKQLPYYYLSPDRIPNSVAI
T1 sequence (P20292 1-161 partner): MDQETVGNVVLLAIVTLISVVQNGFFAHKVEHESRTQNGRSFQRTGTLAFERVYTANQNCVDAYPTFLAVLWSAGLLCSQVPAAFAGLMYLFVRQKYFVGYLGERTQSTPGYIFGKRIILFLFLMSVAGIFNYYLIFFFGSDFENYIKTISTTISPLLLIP

Chain of 12-lipoxygenase (12-LO) (P18054 whole entry): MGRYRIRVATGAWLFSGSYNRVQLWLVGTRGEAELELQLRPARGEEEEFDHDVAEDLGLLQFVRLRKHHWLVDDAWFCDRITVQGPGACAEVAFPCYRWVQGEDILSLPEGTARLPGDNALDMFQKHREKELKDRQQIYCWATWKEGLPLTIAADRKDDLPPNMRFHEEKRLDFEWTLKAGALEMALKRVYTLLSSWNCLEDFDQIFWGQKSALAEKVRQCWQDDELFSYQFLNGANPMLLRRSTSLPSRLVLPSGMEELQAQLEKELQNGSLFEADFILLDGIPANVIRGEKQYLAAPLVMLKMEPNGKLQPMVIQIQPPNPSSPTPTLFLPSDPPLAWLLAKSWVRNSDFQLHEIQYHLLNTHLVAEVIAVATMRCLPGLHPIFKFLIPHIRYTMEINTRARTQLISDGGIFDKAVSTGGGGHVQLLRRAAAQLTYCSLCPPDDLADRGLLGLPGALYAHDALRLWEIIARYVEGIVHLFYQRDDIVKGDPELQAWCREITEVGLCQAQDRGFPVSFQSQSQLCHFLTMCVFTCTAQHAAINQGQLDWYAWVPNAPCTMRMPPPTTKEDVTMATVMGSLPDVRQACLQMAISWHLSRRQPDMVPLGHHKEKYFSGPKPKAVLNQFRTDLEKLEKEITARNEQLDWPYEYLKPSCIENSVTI

- % remaining at 1 μM (12-lipoxygenase (12-LO)): 74.3
- IC50 (5-lipoxygenase (5-LO)): 1000 nM
SMILES: O=C(/C=C/c1ccc(O)c(O)c1)OCCc1ccccc1 [compound 1, Caffeic acid phenethyl ester]
